Test [1] deals with Signal transducer and activator of transcription 3 (Homo sapiens, UniProt P40763). The test can be described thus: Inhibition of STAT3 in human HEK293T cells assessed as inhibition of IL-6 stimulated STAT3 phosphorylation by dual-luciferase reporter assay. It is filed as cell-based. On the technique in general: A reporter such as luciferase makes a cellular process visible.
Test [2] in a line: Inhibition of ATP production in human BXPC-3 cells incubated for 20 to 24 hrs by ATP assay kit method. It is filed as functional, cell-based.
Test [3] concerns BXPC-3. In words: Anti-proliferative activity against human BXPC-3 cells assessed as cell growth inhibition incubated for 72 hrs by MTS assay. Format: functional, cell-based. The conditions noted are these: BXPC-3, 72 h. For orientation: Tetrazolium assays rely on reduction of a dye to a coloured formazan, in cell work by metabolically active cells.
Test [4] has as its system Capan-2. In words: Anti-proliferative activity against human Capan-2 cells assessed as cell growth inhibition incubated for 72 hrs by MTS assay. It is filed as functional, cell-based. The conditions noted are these: Capan-2, 72 h.

Chain of Signal transducer and activator of transcription 3 (P40763 whole entry): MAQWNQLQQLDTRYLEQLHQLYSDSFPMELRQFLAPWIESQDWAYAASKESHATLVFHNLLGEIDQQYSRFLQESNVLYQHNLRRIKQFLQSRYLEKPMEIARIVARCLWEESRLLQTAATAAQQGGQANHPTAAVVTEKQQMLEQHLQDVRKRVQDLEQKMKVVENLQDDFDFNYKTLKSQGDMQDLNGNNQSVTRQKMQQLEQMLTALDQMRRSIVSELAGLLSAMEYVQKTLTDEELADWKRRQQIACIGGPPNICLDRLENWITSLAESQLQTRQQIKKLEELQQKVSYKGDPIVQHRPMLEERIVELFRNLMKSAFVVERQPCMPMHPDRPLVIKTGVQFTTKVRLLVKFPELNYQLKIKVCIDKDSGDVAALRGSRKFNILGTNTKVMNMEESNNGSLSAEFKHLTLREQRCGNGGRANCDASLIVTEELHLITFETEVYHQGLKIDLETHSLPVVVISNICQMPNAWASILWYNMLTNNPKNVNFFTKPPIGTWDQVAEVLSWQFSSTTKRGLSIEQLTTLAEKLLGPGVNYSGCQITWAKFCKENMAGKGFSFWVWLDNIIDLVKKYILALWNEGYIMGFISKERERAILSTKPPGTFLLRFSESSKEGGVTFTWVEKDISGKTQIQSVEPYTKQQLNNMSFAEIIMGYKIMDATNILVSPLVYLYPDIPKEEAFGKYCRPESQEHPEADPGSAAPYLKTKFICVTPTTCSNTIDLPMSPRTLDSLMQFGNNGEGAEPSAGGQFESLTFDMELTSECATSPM

As to `Cn1c(C(=O)N2CCN(Cc3ccc(OC(F)(F)F)cc3)CC2)cc2ccc(Oc3cnc(-c4nc(-c5ccc(C(F)(F)F)cc5)no4)cn3)cc21`, the IC50 (commonly the concentration at which inhibition is half-maximal) in test [1] is 76.1 nM.
Take `Cn1c(C(=O)N2CCN(Cc3ccc(OCC(F)(F)F)cc3)CC2)cc2ccc(Oc3cnc(-c4nc(-c5cccc(F)c5)no4)cn3)cc21`: the IC50 in test [1] turned out to be 38.3 nM; in test [2], 19.9 nM; in test [3], 1.9 nM; in test [4] it was 5 nM.
On to `Cn1c(C(=O)N2CCN(CCc3ccccc3)CC2)cc2ccc(Oc3cnc(-c4nc(-c5ccc(C(F)(F)F)cc5)no4)cn3)cc21`, for which, in test [1], the half-inhibitory concentration (IC50) came out at 595 nM.
Same read-out and setting: then `CCOC(=O)Cn1c(C(=O)N2CCN(Cc3ccc(OCC(F)(F)F)cc3)CC2)cc2ccc(Oc3cnc(-c4nc(-c5ccc(C(F)(F)F)cc5)no4)cn3)cc21`, with over 1000 nM; and `C=CCn1c(C(=O)N2CCN(Cc3ccc(OCC(F)(F)F)cc3)CC2)cc2ccc(Oc3cnc(-c4nc(-c5ccc(C(F)(F)F)cc5)no4)cn3)cc21`, with over 1000 nM; and `Cn1c(C(=O)N2CCN(C(=O)c3ccc(OCC(F)(F)F)cc3)CC2)cc2ccc(Oc3cnc(-c4nc(-c5ccc(C(F)(F)F)cc5)no4)cn3)cc21`, with over 1000 nM.
As for `Cn1c(C(=O)N2CCN(Cc3ccc(OCC(F)(F)F)c(F)c3)CC2)cc2ccc(Oc3cnc(-c4nc(-c5ccc(C(F)(F)F)cc5)no4)cn3)cc21`, the IC50 in test [1] was 101 nM; in test [2] it was 117 nM.
Regarding `O=C(c1cc2ccc(Oc3cnc(-c4nc(-c5ccc(C(F)(F)F)cc5)no4)cn3)cc2n1Cc1ccccc1)N1CCN(Cc2ccc(OCC(F)(F)F)cc2)CC1`, in test [1], the half-inhibitory concentration (IC50) is over 1000 nM.
For `COCCn1c(C(=O)N2CCN(Cc3ccc(OCC(F)(F)F)cc3)CC2)cc2ccc(Oc3cnc(-c4nc(-c5ccc(C(F)(F)F)cc5)no4)cn3)cc21`, the 50% inhibitory concentration (IC50) was 39.9 nM in test [1] and 93.2 nM in test [2].
Consider `Cn1c(C(=O)N2CCN(Cc3ccc(OCC(F)(F)F)cc3)CC2)cc2ccc(Oc3cnc(-c4nc(-c5ccccc5F)no4)cn3)cc21`, for which the IC50 in test [1] was found to be 13.1 nM; in test [2] it was 16.5 nM; in test [3], 1.7 nM; in test [4], 7.7 nM.
`Cn1c(C(=O)N2CCN(Cc3ccc(OCC(F)(F)F)cc3)CC2)cc2ccc(Oc3cnc(-c4nc(-c5ccc(Cl)cc5)no4)cn3)cc21`: the IC50 stood at 35.7 nM in test [1], 25.8 nM in test [2], 4.8 nM in test [3] and 12.6 nM in test [4].
Consider `CCN1CCN(C(=O)c2cc3ccc(Oc4cnc(-c5nc(-c6ccc(C(F)(F)F)cc6)no5)cn4)cc3n2C)CC1`, for which the IC50 in test [1] was found to be 1110 nM; in test [2], 1.6 nM; in test [3] it was 1.9 nM; in test [4] it was 1 nM.
Consider `COC(=O)Cn1c(C(=O)N2CCN(Cc3ccc(OCC(F)(F)F)cc3)CC2)cc2ccc(Oc3cnc(-c4nc(-c5ccc(C(F)(F)F)cc5)no4)cn3)cc21`, for which the IC50 in test [1] is over 1000 nM.
As to `Cn1c(C(=O)N2CCN(C(=O)c3ccc(C(F)(F)F)cc3)CC2)cc2ccc(Oc3cnc(-c4nc(-c5ccc(C(F)(F)F)cc5)no4)cn3)cc21`, the IC50 in test [1] was over 1000 nM.
Take `Cn1c(C(=O)N2CCN(Cc3cccc(C(F)(F)F)c3)CC2)cc2ccc(Oc3cnc(-c4nc(-c5ccc(C(F)(F)F)cc5)no4)cn3)cc21`: the IC50 in test [1] was over 1000 nM.
`COc1ccccc1-c1noc(-c2cnc(Oc3ccc4cc(C(=O)N5CCN(Cc6ccc(OCC(F)(F)F)cc6)CC5)n(C)c4c3)cn2)n1`: the IC50 in test [1] was found to be 45.5 nM; in test [2] it was 56.5 nM; in test [3] it was 1.3 nM; in test [4], 8.6 nM.
As to `Cn1c(C(=O)N2CCN(Cc3ccc(OCC(F)(F)F)cc3)CC2)cc2ccc(Oc3cnc(-c4nc(-c5ccccc5)no4)cn3)cc21`, the IC50 in test [1] amounted to 217 nM.
As to `CC(C)C(=O)n1c(C(=O)N2CCN(Cc3ccc(OCC(F)(F)F)cc3)CC2)cc2ccc(Oc3cnc(-c4nc(-c5ccc(C(F)(F)F)cc5)no4)cn3)cc21`, in test [1], the IC50 worked out at 337 nM.
As for `CN1CCN(C(=O)c2cc3ccc(Oc4cnc(-c5nc(-c6ccc(C(F)(F)F)cc6)no5)cn4)cc3n2C)CC1`, in test [1], the half-maximal inhibitory concentration (IC50) is over 1000 nM.
Turning to `Cn1c(C(=O)N2CCN(Cc3ccc(Br)cc3)CC2)cc2ccc(Oc3cnc(-c4nc(-c5ccc(C(F)(F)F)cc5)no4)cn3)cc21`, the IC50 in test [1] turned out to be 836 nM.
With `Cn1c(C(=O)N2CCN(Cc3cccc(OCC(F)(F)F)c3)CC2)cc2ccc(Oc3cnc(-c4nc(-c5ccc(C(F)(F)F)cc5)no4)cn3)cc21`, the concentration for half-maximal inhibition (IC50) in test [1] was over 1000 nM.
On to `Cn1c(C(=O)N2CCN(Cc3ccc(OCC(F)(F)F)cc3)CC2)cc2ccc(Oc3cnc(-c4nc(-c5ccc(C(F)(F)F)cc5)no4)cn3)cc21`, for which the IC50 in test [1] came out at 22.3 nM; in test [2], 32.5 nM; in test [3], 3.3 nM; in test [4], 8.6 nM.
In the case of `COc1ccc(CN2CCN(C(=O)c3cc4ccc(Oc5cnc(-c6nc(-c7ccc(C(F)(F)F)cc7)no6)cn5)cc4n3C)CC2)cc1`, the concentration for half-maximal inhibition (IC50) in test [1] came out at 63.6 nM.
With `Cn1c(C(=O)N2CCN(Cc3ccccc3OCC(F)(F)F)CC2)cc2ccc(Oc3cnc(-c4nc(-c5ccc(C(F)(F)F)cc5)no4)cn3)cc21`, the IC50 in test [1] was over 1000 nM.
Consider `CCCn1c(C(=O)N2CCN(Cc3ccc(OCC(F)(F)F)cc3)CC2)cc2ccc(Oc3cnc(-c4nc(-c5ccc(C(F)(F)F)cc5)no4)cn3)cc21`, for which, in test [1], the half-inhibitory concentration (IC50) was 613 nM.
For the compound `Cc1ccc(CN2CCN(C(=O)c3cc4ccc(Oc5cnc(-c6nc(-c7ccc(C(F)(F)F)cc7)no6)cn5)cc4n3C)CC2)cc1`, the IC50 in test [1] came out at 492 nM.
Same read-out and setting: then `Cn1c(C(=O)N2CCN(Cc3ccc(F)cc3)CC2)cc2ccc(Oc3cnc(-c4nc(-c5ccc(C(F)(F)F)cc5)no4)cn3)cc21`, with 427 nM; and `Cc1cccc(CN2CCN(C(=O)c3cc4ccc(Oc5cnc(-c6nc(-c7ccc(C(F)(F)F)cc7)no6)cn5)cc4n3C)CC2)c1`, with over 1000 nM.
As for `Cn1c(C(=O)N2CCN(Cc3ccc(C(F)(F)F)cc3)CC2)cc2ccc(Oc3cnc(-c4nc(-c5ccc(C(F)(F)F)cc5)no4)cn3)cc21`, the results for the 50% inhibitory concentration (IC50) in test [1] and in test [2] were 72.4 nM and 102 nM, respectively.
`COc1cccc(-c2noc(-c3cnc(Oc4ccc5cc(C(=O)N6CCN(Cc7ccc(OCC(F)(F)F)cc7)CC6)n(C)c5c4)cn3)n2)c1`: the concentration for half-maximal inhibition (IC50) in test [1] came to 19.8 nM; in test [2], 12.6 nM; in test [3] it was 1.5 nM; in test [4], 6.5 nM.
For the compound `Cn1c(C(=O)N2CCN(C(=O)CCl)CC2)cc2ccc(Oc3cnc(-c4nc(-c5ccc(C(F)(F)F)cc5)no4)cn3)cc21`, in test [1], the IC50 was over 1000 nM.
As to `COC(=O)CN1CCN(C(=O)c2cc3ccc(Oc4cnc(-c5nc(-c6ccc(C(F)(F)F)cc6)no5)cn4)cc3n2C)CC1`, in test [1], the IC50 is over 1000 nM.
As for `Cn1c(C(=O)N2CCN(Cc3ccc(Cl)cc3)CC2)cc2ccc(Oc3cnc(-c4nc(-c5ccc(C(F)(F)F)cc5)no4)cn3)cc21`, the IC50 in test [1] was determined as 649 nM.
Turning to `Cn1c(C(=O)N2CCN(Cc3ccc(OCC(F)(F)F)cc3)CC2)cc2ccc(Oc3cnc(-c4nc(-c5ccc(Br)cc5)no4)cn3)cc21`, the half-maximal inhibitory concentration (IC50) in test [1] turned out to be 28.1 nM; in test [2] it was 14.3 nM; in test [3], 2.7 nM; in test [4] it was 9.3 nM.
Taken in the same sequence, the figures for `Cn1c(C(=O)N2CCN(Cc3ccc(OCC(F)(F)F)cc3)CC2)cc2ccc(Oc3cnc(-c4nc(-c5ccc(OC(F)(F)F)cc5)no4)cn3)cc21` were 39.2 nM, 10.5 nM, 11.4 nM and 6.4 nM.
Consider `COc1ccc(CN2CCN(C(=O)c3cc4ccc(Oc5cnc(-c6nc(-c7ccc(C(F)(F)F)cc7)no6)cn5)cc4n3C)CC2)cc1F`, for which the IC50 in test [1] was 134 nM.
For the compound `O=C(c1cc2ccc(Oc3cnc(-c4nc(-c5ccc(C(F)(F)F)cc5)no4)cn3)cc2[nH]1)N1CCN(Cc2ccc(OCC(F)(F)F)cc2)CC1`, the IC50 in test [1] was 30.5 nM; in test [2] it was 25 nM.
Take `CCCN1CCN(C(=O)c2cc3ccc(Oc4cnc(-c5nc(-c6ccc(C(F)(F)F)cc6)no5)cn4)cc3n2C)CC1`: the concentration for half-maximal inhibition (IC50) in test [1] stood at 800 nM.
The same measure, in the same setting: then `CCn1c(C(=O)N2CCN(Cc3ccc(OCC(F)(F)F)cc3)CC2)cc2ccc(Oc3cnc(-c4nc(-c5ccc(C(F)(F)F)cc5)no4)cn3)cc21`, with 167 nM.

Values taken from ChEMBL document CHEMBL5096221, “Discovery of a Highly Potent and Orally Bioavailable STAT3 Dual Phosphorylation Inhibitor for Pancreatic Cancer Treatment” (J Med Chem, 2022).
